Data on 25 compounds can be found in US12570642B2, “GLP-IR modulating compounds” (Gilead Sciences, Inc., priority 2021, dated 2026).

Broadly, the EC50 is the midpoint of the concentration-response curve.

This experiment deals with GLP-1R (Homo sapiens, UniProt P43220). The experiment in a line: GLP-1R Activation - cAMP Assay. It is filed as cell-based. The conditions noted are these: cAMP increase in CHO cells stably expressing GLP-1R; each compound run on one of the two cAMP assays (Assay 1 or Assay 2, not specified). In outline:
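CHO cells stably expressing GLP-1R, plated at 1,000 cells/well overnight, then equilibrated 1 h in HBSS with 20 mM Hepes and 0.1% BSA. Agonist added as 10-point dose response for 30 min at 37 °C. cAMP measured by HTRF (Cisbio Gs Dynamic kit); EC50 from sigmoidal fit.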

GLP-1R, sequence (P43220 24-463): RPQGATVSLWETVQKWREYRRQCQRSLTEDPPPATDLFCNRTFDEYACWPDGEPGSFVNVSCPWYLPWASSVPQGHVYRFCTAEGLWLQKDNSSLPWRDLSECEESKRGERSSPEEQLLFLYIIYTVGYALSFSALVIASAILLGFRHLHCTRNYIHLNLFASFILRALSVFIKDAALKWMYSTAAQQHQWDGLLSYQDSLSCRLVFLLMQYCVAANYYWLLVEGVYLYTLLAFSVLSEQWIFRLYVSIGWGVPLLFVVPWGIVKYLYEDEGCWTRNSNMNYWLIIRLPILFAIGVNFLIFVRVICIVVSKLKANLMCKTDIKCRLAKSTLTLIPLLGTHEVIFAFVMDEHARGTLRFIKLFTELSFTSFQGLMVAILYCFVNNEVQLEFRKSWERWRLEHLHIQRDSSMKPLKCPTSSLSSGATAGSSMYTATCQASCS

`N#Cc1ccc(COc2cccc(-c3cc(F)c(Cc4nc5ccc(C(=O)O)cc5n4[C@@H]4COC[C@@H]4OCC(F)F)cc3F)n2)c(F)c1` [Example 540, 2-(4-(6-((4-cyano-2-fluorobenzyl)oxy)pyridin-2-yl)-2,5-difluorobenzyl)-1-((3R,4R)-4-(2,2-difluoroethoxy)tetrahydrofuran-3-yl)-1H-benzo[d]imidazole-6-carboxylic acid]: a half-maximal effect (EC50) was put at 0.052 nM. As to `CC1(C)COC[C@H]1n1c(Cc2cc(F)c(-c3cccc(OCc4ccc(C#N)cc4F)n3)cc2Cl)nc2ccc(C(=O)O)cc21` [Example 257, (S)-2-(2-chloro-4-(6-((4-cyano-2-fluorobenzyl)oxy)pyridin-2-yl)-5-fluorobenzyl)-1-(4,4-dimethyltetrahydrofuran-3-yl)-1H-benzo[d]imidazole-6-carboxylic acid], a half-maximal effect (EC50) was put at 0.064 nM. This EC50 and that of the compound before are within 1.5-fold of each other. In turn, `CC1(C)COC[C@H]1n1c(Cc2c(F)cc(-c3ccc(Cl)c(OCc4ccc(C#N)cc4)n3)c(F)c2F)nc2ccc(C(=O)O)cc21` [Example 415, (S)-2-(4-(5-chloro-6-((4-cyanobenzyl)oxy)pyridin-2-yl)-2,3,6-trifluorobenzyl)-1-(4,4-dimethyltetrahydrofuran-3-yl)-1H-benzo[d]imidazole-6-carboxylic acid] registered an EC50 of 0.491 nM.

The compound `CC1(C)COC[C@@H]1n1c(Cc2cc(F)c(-c3cccc(OCc4ccc(C(F)F)cc4F)n3)cc2F)nc2ccc(C(=O)O)cc21` (single isomer, unassigned) [Example 383B] had a concentration for a half-maximal effect (EC50) of 0.971 nM. Regarding `Cc1cc(Cc2nc3c(F)cc(C(=O)O)cc3n2[C@@H]2COCC2(C)C)c(F)cc1-c1ccnc(OCc2ccc(Cl)cc2)n1` [Example 211, (S)-2-(4-(2-((4-chlorobenzyl)oxy)pyrimidin-4-yl)-2-fluoro-5-methylbenzyl)-1-(4,4-dimethyltetrahydrofuran-3-yl)-4-fluoro-1H-benzo[d]imidazole-6-carboxylic acid], the EC50 amounted to 0.258 nM. Against the preceding compound, the EC50 is about 3.8-fold lower. For `CC1(C)COC[C@H]1n1c(Cc2cc(F)c(-c3cccc(OCc4ccc(F)cc4)n3)cc2F)nc2ccc(C(=O)O)cc21` [Example 360, (S)-2-(2,5-difluoro-4-(6-((4-fluorobenzyl)oxy)pyridin-2-yl)benzyl)-1-(4,4-dimethyltetrahydrofuran-3-yl)-1H-benzo[d]imidazole-6-carboxylic acid] the value was 0.079 nM. For `CO[C@H]1CCOC[C@H]1n1c(Cc2cc(F)c(-c3cccc(OCc4ccc(C#N)cc4F)n3)cc2F)nc2ccc(C(=O)O)cc21` (single isomer, unassigned) [Example 409] the value was 0.291 nM; for `COc1cc(-c2cnn(C)c2)ncc1COc1cccc(-c2cc(F)c(Cc3nc4ccc(C(=O)O)cc4n3C[C@@H](C)OC)cc2F)n1` [Example 91, (R)-2-(2,5-difluoro-4-(6-((4-methoxy-6-(1-methyl-1H-pyrazol-4-yl)pyridin-3-yl)methoxy)pyridin-2-yl)benzyl)-1-(2-methoxypropyl)-1H-benzo[d]imidazole-6-carboxylic Acid], 2.06 nM. As to `CC1(C)COC[C@H]1n1c(Cc2cc(F)c(-c3ccc(Cl)c(OCc4ccc(Cl)cc4)n3)cc2F)nc2ccc(C(=O)O)cc21` [Example 433, (S)-2-(4-(5-chloro-6-((4-chlorobenzyl)oxy)pyridin-2-yl)-2,5-difluorobenzyl)-1-(4,4-dimethyltetrahydrofuran-3-yl)-1H-benzo[d]imidazole-6-carboxylic acid], the EC50 was 0.209 nM. The result for `CC1(C)COC[C@H]1n1c(Cc2ccc(-c3ccc(F)c(OCc4ccc(-n5ccnn5)cc4F)n3)cc2F)nc2c(F)cc(C(=O)O)cc21` [Example 235, (S)-1-(4,4-dimethyltetrahydrofuran-3-yl)-4-fluoro-2-(2-fluoro-4-(5-fluoro-6-((2-fluoro-4-(1H-1,2,3-triazol-1-yl)benzyl)oxy)pyridin-2-yl)benzyl)-1H-benzo[d]imidazole-6-carboxylic acid] reads 0.191 nM. For `Cc1c(-c2cccc(OCc3ccc(C#N)cc3F)n2)ccc(Cc2nc3ccc(C(=O)O)cc3n2C[C@@H]2CCO2)c1F` [Example 146, (S)-2-(4-(6-((4-cyano-2-fluorobenzyl)oxy)pyridin-2-yl)-2-fluoro-3-methylbenzyl)-1-(oxetan-2-ylmethyl)-1H-benzo[d]imidazole-6-carboxylic Acid] the value was 0.379 nM; for `CC1(C)COC[C@H]1n1c(Cn2cc(F)c(-c3cccc(OCc4ccc(Cl)cc4)n3)cc2=O)nc2ccc(C(=O)O)cc21` [Example 297, (S)-2-((6-((4-chlorobenzyl)oxy)-5′-fluoro-2′-oxo-[2,4′-bipyridin]-1′(2′H)-yl)methyl)-1-(4,4-dimethyltetrahydrofuran-3-yl)-1H-benzo[d]imidazole-6-carboxylic acid], 0.151 nM; for `CC1(C)COCC1n1c(Cc2c(F)cc(-c3cccc(OCc4ccc(C#N)cc4F)n3)c(F)c2F)nc2c(F)cc(C(=O)O)cc21` (stereo not shown) [Example 122, 2-(4-(6-((4-cyano-2-fluorobenzyl)oxy)pyridin-2-yl)-2,3,6-trifluorobenzyl)-1-(4,4-dimethyltetrahydrofuran-3-yl)-4-fluoro-1H-benzo[d]imidazole-6-carboxylic Acid], 0.031 nM.

As for `CC1(C)COC[C@H]1n1c(Cc2cc(F)c(-c3ccc(Cl)c(OCc4ccc(C#N)cc4)n3)cc2F)nc2ccc(C(=O)O)cc21` [Example 432, (S)-2-(4-(5-chloro-6-((4-cyanobenzyl)oxy)pyridin-2-yl)-2,5-difluorobenzyl)-1-(4,4-dimethyltetrahydrofuran-3-yl)-1H-benzo[d]imidazole-6-carboxylic acid], the EC50 turned out to be 0.114 nM.

`CC1(C)COCC1n1c(Cc2cc(F)c(-c3ccnc(OCc4ccc(C(F)F)cc4F)n3)cc2Cl)nc2c(F)cc(C(=O)O)cc21` (stereo not shown) [Example 344, 2-(2-chloro-4-(2-((4-(difluoromethyl)-2-fluorobenzyl)oxy)pyrimidin-4-yl)-5-fluorobenzyl)-1-(4,4-dimethyltetrahydrofuran-3-yl)-4-fluoro-1H-benzo[d]imidazole-6-carboxylic acid] had an EC50 of 0.147 nM. In turn, `COC[C@]1(C)COCC1n1c(Cc2cc(F)c(-c3cccc(OCc4ccc(Cl)cc4F)n3)cc2F)nc2ccc(C(=O)O)cc21` (stereo in doubt) [Example 549, 2-(4-(6-((4-chloro-2-fluorobenzyl)oxy)pyridin-2-yl)-2,5-difluorobenzyl)-1-((3R,4S)-4-(methoxymethyl)-4-methyltetrahydrofuran-3-yl)-1H-benzo[d]imidazole-6-carboxylic acid] returned an EC50 of 0.727 nM. The result for `CC1(C)COC[C@H]1n1c(Cc2cc(F)c(-c3cccc(OCc4ccc(Cl)cc4F)n3)cc2F)nc2cnc(C(=O)O)cc21` [Example 423, (S)-2-(4-(6-((4-chloro-2-fluorobenzyl)oxy)pyridin-2-yl)-2,5-difluorobenzyl)-1-(4,4-dimethyltetrahydrofuran-3-yl)-1H-imidazo[4,5-c]pyridine-6-carboxylic acid] reads 2.54 nM; that for `COCCn1c(Cc2c(F)cc(-c3cccc(OCc4ccc(-n5ccnn5)cc4F)n3)c(F)c2F)nc2c(F)cc(C(=O)O)cc21` [Example 250, 4-fluoro-1-(2-methoxyethyl)-2-(2,3,6-trifluoro-4-(6-((2-fluoro-4-(1H-1,2,3-triazol-1-yl)benzyl)oxy)pyridin-2-yl)benzyl)-1H-benzo[d]imidazole-6-carboxylic acid], 0.048 nM; that for `COCCn1c(Cc2cc(F)c(-c3cc(C(F)F)cc(OCc4ccc(C#N)cc4F)n3)cc2F)nc2ccc(C(=O)O)cc21` [Example 41], 4.88 nM.

In turn, `COc1cc(Cl)ncc1COc1cccc(-c2cc(F)c(Cc3nc4ccc(C(=O)O)cc4n3[C@@H]3COCC3(C)C)cc2F)n1` (single isomer, unassigned) [Example 290A] had an EC50 of 0.063 nM. In turn, `CC1(C)COC[C@H]1n1c(Cc2cc(F)c(-c3cccc(OCc4ccc(F)cc4Cl)n3)cc2F)nc2ccc(C(=O)O)cc21` [Example 464, (S)-2-(4-(6-((2-chloro-4-fluorobenzyl)oxy)pyridin-2-yl)-2,5-difluorobenzyl)-1-(4,4-dimethyltetrahydrofuran-3-yl)-1H-benzo[d]imidazole-6-carboxylic acid] showed an EC50 of 0.172 nM. Against the preceding compound, the EC50 is about 2.7-fold higher.

Regarding `Cc1ncc(-c2ccc(COc3cccc(-c4cc(F)c(Cc5nc6ccc(C(=O)O)cc6n5[C@@H]5COCC5(C)C)cc4F)n3)c(F)c2)o1` [Example 445, (S)-2-(2,5-difluoro-4-(6-((2-fluoro-4-(2-methyloxazol-5-yl)benzyl)oxy)pyridin-2-yl)benzyl)-1-(4,4-dimethyltetrahydrofuran-3-yl)-1H-benzo[d]imidazole-6-carboxylic acid], the EC50 was 0.279 nM. Against the preceding compound, the EC50 is about 1.6-fold higher.

In turn, `COCCn1c(Cc2c(F)cc(-c3cccc(OCc4ccc(-n5ccnn5)cc4Cl)n3)c(F)c2F)nc2ccc(C(=O)O)cc21` [Example 403, 2-(4-(6-((2-chloro-4-(1H-1,2,3-triazol-1-yl)benzyl)oxy)pyridin-2-yl)-2,3,6-trifluorobenzyl)-1-(2-methoxyethyl)-1H-benzo[d]imidazole-6-carboxylic acid] displayed an EC50 of 0.081 nM. For `COCCn1c(Cc2c(F)cc(-c3cccc(OCc4ccc(C#N)cc4F)n3)c(F)c2F)nc2c(F)cc(C(=O)O)cc21` [Example 292, 2-(4-(6-((4-cyano-2-fluorobenzyl)oxy)pyridin-2-yl)-2,3,6-trifluorobenzyl)-4-fluoro-1-(2-methoxyethyl)-1H-benzo[d]imidazole-6-carboxylic acid] the value was 0.133 nM; for `CC1(C)COC[C@H]1n1c(Cc2cc(F)c(-c3cccc(OCc4ccc(Cl)cc4)n3)cc2F)nc2c(F)cc(C(=O)O)cc21` [Example 367, (S)-2-(4-(6-((4-chlorobenzyl)oxy)pyridin-2-yl)-2,5-difluorobenzyl)-1-(4,4-dimethyltetrahydrofuran-3-yl)-4-fluoro-1H-benzo[d]imidazole-6-carboxylic acid], 0.274 nM.
